In US20230293535A1, “ERBB/BTK INHIBITORS” (Dizal (Jiangsu) Pharmaceutical Co., Ltd., priority 2018, published 2023) one finds GI50, IC50 and hepatocyte CLint data, which are given here for six compounds.

pIC50: −log10 of the molar value. Some results are limits rather than exact numbers.

The test system of one series is WT EGFR cell line A-431. The series is described as follows: Cell proliferation, WT EGFR A431 (CellTiter-Glo, 72 h).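 Further: proliferation from a luminescent ATP viability signal, expressed as 100 × (treated minus time-zero plate) over (DMSO control minus time-zero plate), cells grown with 10% FBS.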 Type of series: cell-based. The following applies: Homo sapiens, A-431, 72 h, A431, 72 h proliferation; read-out: EGFR WT A431 GI50.
The subject of series [1] is NCI-H1975 EGFR L858R/T790M cells. The series is described as follows: Cell proliferation, NCI-H1975 EGFR L858R/T790M (CellTiter-Glo, 72 h).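 Further: viable cells quantified by luciferase-based ATP luminescence, proliferation expressed relative to DMSO-treated wells (100%) after subtracting a parallel plate read at the time of dosing.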 In kind it is cell-based. The note with it: Homo sapiens, NCI-H1975, 72 h, NCI-H1975, 72 h proliferation; read-out: EGFR L858R and T790M mutation GI50. For orientation: Cellular ATP, detected with luciferase, serves as a proxy for viable cell number.

A further series deals with Ba/F3 EGFR NPH ins cells. As to the kind of experiment: Cell proliferation, Ba/F3 EGFR NPH ins (CellTiter-Glo, 72 h).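 Further: IL3-independent cells carrying constitutively phosphorylated EGFR, compound dilution series, viable cells quantified by ATP luminescence, growth relative to DMSO wells after subtracting pre-dosing (day 0) baseline.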 In kind it is cell-based. The note with it: Ba/F3 EGFR, 72 h, Ba/F3 EGFR NPH ins, 72 h proliferation; read-out: EGFR Exon20 NPH insertion GI50.
A further series deals with T1, WT EGFR (Homo sapiens, UniProt P00533).
T1 construct: host or cells: A-431
The series is described as follows: WT EGFR cellular phosphorylation inhibition in A-431 (hEGF stimulated, MSD).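 Further: electrochemiluminescence read-out of EGFR Tyr1068 phosphorylation expressed as ratio to total EGFR, cells kept in medium with 1% FBS, compounds tested as a concentration series.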 Type of series: cell-based. The following applies: A431 cells, 4 h compound, then 100 ng/ml hEGF 10 min.

In the next series the test system is OCI-LY-10 cells. The series is described as follows: BTK (wt) cell proliferation, OCI-LY-10 (CellTiter-Glo, 72 h).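 Further: viable cells quantified via cellular ATP luminescence, proliferation given as percent of DMSO control after subtracting a duplicate plate read at time of dosing.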 Type of series: cell-based. The note with it: Homo sapiens, OCI-Ly10, 72 h, OCI-LY-10 cells, 72 h, CellTiter-Glo; read-out: BTK WT OCI-LY-10 GI50.
The next series deals with DB cells. The series is described as follows: BTK (wt) cell proliferation, DB (CellTiter-Glo, 72 h).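 Further: DB cells in 384-well plates given a dilution series of compound, viable cells read by ATP luminescence, growth expressed versus DMSO control after subtracting a time-zero plate reading.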 In kind it is cell-based. The note with it: Homo sapiens, DB, DB cells, CellTiter-Glo, read-out: Non-BCR activated DB GI50.
Series [2] has as its target T2, human EGFR exon 20 H773_V774insNPH (Homo sapiens, UniProt P00533, INS773NPH).
T2 construct: host or cells: Ba/F3
The series is described as follows: EGFR Exon20 NPH insertion cellular phosphorylation inhibition (MSD pEGFR Y1068/total EGFR).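 Further: IL3-independent Ba/F3 cells with constitutively phosphorylated EGFR, compound exposure at 37 °C under 5% CO2, electrochemiluminescent MSD measurement of the p-EGFR to total EGFR ratio.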 In kind it is cell-based. The note with it: Ba/F3 EGFR NPH ins cells, 4 h compound, p-EGFR(Y1068)/total EGFR.

Another series has as its target T3, EGFR L858R&T790M (Homo sapiens, UniProt P00533, L858R/T790M).
T3 construct: host or cells: NCI-H1975
The series is described as follows: EGFR L858R and T790M cellular phosphorylation inhibition in NCI-H1975 (MSD).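 Further: phosphorylated and total EGFR detected by electrochemiluminescence, cells exposed to compound in medium containing 1% FBS at 37 °C.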 In kind it is cell-based. The note with it: NCI-H1975 cells, 4 h compound, p-EGFR(Y1068)/total EGFR; read-out: EGFR L858R and T790M mutation IC50.

Series [3] deals with Her2 exon 20 insertion YVMA transduced NIH-3T3 cell line. As to the kind of experiment: Cell proliferation, Her2 YVMAins NIH-3T3 (CellTiter-Glo, 72 h).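 Further: viable cells quantified by ATP luminescence, growth over a day-zero baseline plate expressed as percent of DMSO control growth, compound dilution series in 10% FBS medium.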 The note with it: Mus musculus, NIH3T3, 72 h, Her2 YVMAins cells, 72 h proliferation; read-out: Her2 Exon 20 YVMA insertion GI50. In kind it is cell-based.
Method: (§1) WT or mutant cells were seeded in 384 well plates at appropriate concentrations with corresponding growth media supplemented with 10% FBS, for each experiment, identical plates were prepared in duplicates, and the plates were incubated overnight. On the next day, one of each duplicated plates was dosed with tested compounds at a series of concentrations, and another one of the duplicated plate was analysied for G0 value. The dosed plates were incubate for another 72 h at 37° C. with 5% CO2 and the number of viable cells in each well of the G0 plates or the dosed plates were measured by CellTiter-Glo® Luminescent Cell Viability Assay (Promega). This assay is a luminescent method for determining the number viable cells through measurement of cellular ATP concentration by detection of luciferase activity. Detection reagents (15 µl) was dispensed into per well, and the plates were incubate for 30 min at room temperature. Then, the luminescence in each well was measured using the Envision plate reader (PerkinElmer). The percentage of proliferation was calculated based on the formula: %Proliferation= 100 × (G3 value of sample well-Go value)/(G3 value of DMSO control-Go value).
The test system of a further series is Ba/F3 EGFR ASV ins cells. As to the kind of experiment: Cell proliferation, Ba/F3 EGFR ASV ins (CellTiter-Glo, 72 h).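 Further: IL3-independent Ba/F3 cells transduced with EGFR V769_D770insASV, cellular ATP luminescence after compound exposure, growth relative to DMSO control with the day-0 baseline reading subtracted.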 In kind it is cell-based. The note with it: Ba/F3 EGFR, 72 h, Ba/F3 EGFR ASV ins, 72 h proliferation; read-out: EGFR Exon20 ASV insertion GI50.
The next series deals with TMD-8 cells. As to the kind of experiment: BTK (wt) cell proliferation, TMD-8 (CellTiter-Glo, 72 h).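 Further: viable cells quantified by ATP-based luminescence, proliferation expressed as percent of DMSO control after subtracting a time-zero baseline plate read at dosing.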 Type of series: cell-based. The following applies: Homo sapiens, TMD8, 72 h, TMD-8 cells, 72 h, CellTiter-Glo; read-out: BTK WT TMD-8 GI50.
In series [4] the target is T4, human Her2 exon 20 insertion mutation YVMA (Homo sapiens, UniProt P04626, INS775YVMA).
T4 construct: expressed in transfected cells; host or cells: NIH-3T3, lentiviral transduction, puromycin selection
The series is described as follows: Her2 Exon 20 YVMA insertion cellular phosphorylation inhibition (MSD p-Her2 Y1248/total Her2).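 Further: lentivirally transduced NIH-3T3 cells in 1% FBS medium, electrochemiluminescent MSD read-out, graded compound concentrations at 37 °C.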 In kind it is cell-based. The note with it: Her2 YVMAins cells, 4 h compound.

Series [5] can be described thus: In vitro rat hepatocytes clearance assay. The following applies: male, rat, cryopreserved rat hepatocytes (suspension), rat hepatocytes Clint (µL/min/10^6cells), 1 µM-range incubation up to 100 min.
Method: The protocol for rat/human hepatocytes metabolic stability assay is employed to determine the clearance of the compounds of the present disclosure in vitro.
Rat hepatocytes in male gender and human hepatocytes in mixed gender were obtained from commercial vendors (e.g., BioreclamationIVT) and stored at -150° C. prior to use. 10 mM stock solutions of tested compounds were prepared in DMSO. Thawing medium and supplement incubation medium (serum-free) were placed in a 37° C. water bath for at least 15 minutes prior to use. Stock solutions were diluted to 100 µM by combining 198 µL acetonitrile and 2 µL of 10 mM stock solution.
Vials of cryopreserved hepatocytes were removed from storage, ensured that vials remain at cryogenic temperatures. The vials were thawed in a 37° C. water bath with gently shaking. Vials were kept in water bath until all ice crystals had dissolved and were no longer visible. Vials were sprayed with 70% ethanol before being transferred to a biosafety cabinet. And then the contents were poured into the 50 mL thawing medium conical tube. Vials were centrifuged at 100 g for 10 minutes at room temperature.
Cell viability and density were counted using a Trypan Blue exclusion, and then cells were diluted with serum-free incubation medium to a working cell density of 1 × 10^6 viable cells/ml. […] The inactivated hepatocytes were used to prepare negative samples, which were used to exclude the misleading factor that resulted from instability of chemical itself.
Aliquots of 247.5 µL hepatocytes were dispensed into each well of a 96-well non-coated plate. The plate was placed in the incubator on an orbital shaker for approximately 10 minutes. Aliquots of 2.5 µL of the 100 µM test compounds were added into respective wells of the non-coated 96-well plate to start the reaction. This assay was performed in duplicate. The plate was incubated in the incubator on an orbital shaker for the designed time points. […] Samples were centrifuges for 20 minutes at 4000 g and aliquots of 100 µL of the supernatants were used for LC-MS/MS analysis for measurement of test compounds
In vitro hepatocyte clearance was estimated based on determination of elimination half-life (T½) of compounds disappearance from their initial concentrations. Peak area ratios of each compound (test or control) to IS was calculated. Ln (%Control) versus Incubation Time (min) curve was plotted, and the slope of a linear fitting line was calculated.
For series [6], the target named is T5, human EGFR exon 20 V769_D770insASV (Homo sapiens, UniProt P00533, INS769ASV).
T5 construct: expressed in transfected cells; host or cells: Ba/F3 (DSMZ ACC-300), lentiviral transduction, puromycin selection, IL3 depletion
The series is described as follows: EGFR Exon20 ASV insertion cellular phosphorylation inhibition (MSD pEGFR Y1068/total EGFR).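 Further: electrochemiluminescent readout on an MSD SECTOR Imager, IL3-independent transduced cells in medium with 1% FBS, compound concentration series at 37 °C and 5% CO2.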 In kind it is cell-based. The following applies: Ba/F3 EGFR ASV ins cells, 4 h compound, p-EGFR(Y1068)/total EGFR.
Method: To generate the EGFR exon 20 V769_D770insASV transduced Ba/F3 cell line, the parental Ba/F3 cells were infected with the recombinant EGFR V769_D770insASV lentivirus and then followed by 1 µg/ml of puromycin selection and IL3 depletion. The resulting cell line expresses constitutively phosphorylated EGFR protein and proliferates in the absence of IL3, which could be used for in vitro PD and anti-proliferation assays.
One day before the test, WT or mutant cells were seeded in 96 well plates at appropriate concentrations with corresponding growth media supplemented with 1% FBS, and incubated overnight. The next day, tested compounds at a series of concentrations were added into each individual well of the plates, and the plates were incubated for 4 h at 37° C. with 5% CO2.
The EGFR (Y1068) phosphorylation level (activity) of cells in each well were then measured with MSD kit named “MULTI-SPOT®96 4-Spot HB Prototype EGFR Triplex [sequence]: pEGFR(Tyr1068),pEGFR(Tyr1173), Total EGFR” according to the manufacturer’s instruction (MESO SCALE DISCOVERY, Cat# N45ZB-1). The assay is an electrochemiluminescent method for determining both phosphorylated and total EGFR of cells with an MSD SECTOR® Imager and the ratio of p-EGFR/total EGFR can be generated by the machine. The Her2 (Y1248) phosphorylation level (activity) of cells in each well were measured with MSD Kit named “Phospho-ErbB2 (Tyr1248) Assay Whole Cell Lysate Kit” according to the manufacturer’s instruction (MESO SCALE DISCOVERY, Cat# K151CLD-3). The assay is an electrochemiluminescent method (MESO SCALE DISCOVERY) for determining both phosphorylated and total Her2 of cells with an MSD SECTOR® Imager and then the ratio of p-Her2/total Her2 can be generated by the machine.

The next series concerns Ri-1 cells. The series is described as follows: BTK (wt) cell proliferation, Ri-1 (CellTiter-Glo, 72 h).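 Further: viable cells quantified as cellular ATP luminescence, proliferation normalized to a time-zero plate and the DMSO control, compounds tested across a dilution series.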 Type of series: cell-based. The following applies: Ri-1, 72 h, Ri-1 cells, 72 h, CellTiter-Glo; read-out: BTK WT Ri-1 GI50.
A short description of series [7]: In vitro human hepatocytes clearance assay. The note with it: both, human, cryopreserved human hepatocytes (suspension), human hepatocytes Clint (µL/min/10^6cells), mixed gender human hepatocytes, incubation up to 100 min.

T5 sequence (P00533 with tags, fused parts or gaps INS769ASV): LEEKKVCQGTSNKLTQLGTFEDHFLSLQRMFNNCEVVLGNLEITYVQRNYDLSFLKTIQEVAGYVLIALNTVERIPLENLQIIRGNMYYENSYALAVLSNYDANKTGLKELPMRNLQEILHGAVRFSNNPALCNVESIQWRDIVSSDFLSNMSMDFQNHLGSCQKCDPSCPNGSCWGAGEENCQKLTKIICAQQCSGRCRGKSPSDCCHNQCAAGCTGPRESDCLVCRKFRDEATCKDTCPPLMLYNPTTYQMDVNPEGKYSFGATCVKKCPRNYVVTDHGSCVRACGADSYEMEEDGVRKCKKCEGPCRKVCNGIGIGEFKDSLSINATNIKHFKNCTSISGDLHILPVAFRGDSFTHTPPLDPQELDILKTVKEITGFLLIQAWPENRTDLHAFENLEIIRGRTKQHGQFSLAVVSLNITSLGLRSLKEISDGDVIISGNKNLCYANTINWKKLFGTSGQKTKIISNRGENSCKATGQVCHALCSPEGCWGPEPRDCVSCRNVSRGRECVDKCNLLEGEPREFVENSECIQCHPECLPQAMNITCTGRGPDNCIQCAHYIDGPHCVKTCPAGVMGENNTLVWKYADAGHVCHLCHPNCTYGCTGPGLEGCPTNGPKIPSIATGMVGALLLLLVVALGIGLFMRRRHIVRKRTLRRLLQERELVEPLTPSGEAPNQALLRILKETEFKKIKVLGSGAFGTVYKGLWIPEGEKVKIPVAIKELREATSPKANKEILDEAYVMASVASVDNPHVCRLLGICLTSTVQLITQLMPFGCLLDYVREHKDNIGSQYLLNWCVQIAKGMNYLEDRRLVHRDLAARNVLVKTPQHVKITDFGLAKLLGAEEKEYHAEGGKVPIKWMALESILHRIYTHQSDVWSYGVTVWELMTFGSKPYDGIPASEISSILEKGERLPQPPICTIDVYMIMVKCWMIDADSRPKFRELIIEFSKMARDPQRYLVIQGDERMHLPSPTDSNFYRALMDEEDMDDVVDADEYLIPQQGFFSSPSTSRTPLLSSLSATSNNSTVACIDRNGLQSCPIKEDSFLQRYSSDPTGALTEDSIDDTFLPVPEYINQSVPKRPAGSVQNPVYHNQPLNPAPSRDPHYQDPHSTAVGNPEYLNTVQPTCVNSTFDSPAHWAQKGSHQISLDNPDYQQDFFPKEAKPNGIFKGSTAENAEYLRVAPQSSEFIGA
T3 sequence (P00533 25-1210 T790M/L858R): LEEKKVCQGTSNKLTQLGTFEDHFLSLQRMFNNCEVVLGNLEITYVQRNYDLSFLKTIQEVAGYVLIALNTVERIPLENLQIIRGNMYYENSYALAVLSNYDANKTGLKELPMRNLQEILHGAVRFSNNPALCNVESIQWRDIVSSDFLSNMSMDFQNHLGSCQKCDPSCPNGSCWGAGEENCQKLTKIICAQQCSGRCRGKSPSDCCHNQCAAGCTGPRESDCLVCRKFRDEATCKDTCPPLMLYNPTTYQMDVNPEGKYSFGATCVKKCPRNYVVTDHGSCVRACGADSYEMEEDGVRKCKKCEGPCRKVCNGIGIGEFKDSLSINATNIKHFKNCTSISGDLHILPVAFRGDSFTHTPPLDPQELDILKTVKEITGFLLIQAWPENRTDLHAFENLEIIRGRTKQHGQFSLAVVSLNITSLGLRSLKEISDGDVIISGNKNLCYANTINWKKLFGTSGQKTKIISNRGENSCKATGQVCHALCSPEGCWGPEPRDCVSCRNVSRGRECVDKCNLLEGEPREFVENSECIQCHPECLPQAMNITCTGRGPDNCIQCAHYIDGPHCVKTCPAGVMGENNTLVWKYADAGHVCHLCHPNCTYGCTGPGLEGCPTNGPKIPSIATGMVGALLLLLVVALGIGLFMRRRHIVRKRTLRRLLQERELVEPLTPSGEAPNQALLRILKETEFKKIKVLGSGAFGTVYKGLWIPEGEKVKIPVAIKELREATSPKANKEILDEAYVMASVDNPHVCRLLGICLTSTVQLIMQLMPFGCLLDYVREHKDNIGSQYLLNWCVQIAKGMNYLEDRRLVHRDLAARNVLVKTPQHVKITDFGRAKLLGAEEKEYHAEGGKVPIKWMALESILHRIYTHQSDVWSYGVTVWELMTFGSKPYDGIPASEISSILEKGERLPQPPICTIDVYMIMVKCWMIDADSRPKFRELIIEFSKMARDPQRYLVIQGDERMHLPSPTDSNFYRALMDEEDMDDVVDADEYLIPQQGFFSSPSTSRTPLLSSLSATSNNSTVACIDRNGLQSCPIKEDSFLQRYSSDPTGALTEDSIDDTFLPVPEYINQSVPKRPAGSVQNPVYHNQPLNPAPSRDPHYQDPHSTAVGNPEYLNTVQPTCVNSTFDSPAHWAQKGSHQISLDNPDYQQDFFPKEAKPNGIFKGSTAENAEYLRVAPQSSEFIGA
T4 sequence (P04626 with tags, fused parts or gaps INS775YVMA): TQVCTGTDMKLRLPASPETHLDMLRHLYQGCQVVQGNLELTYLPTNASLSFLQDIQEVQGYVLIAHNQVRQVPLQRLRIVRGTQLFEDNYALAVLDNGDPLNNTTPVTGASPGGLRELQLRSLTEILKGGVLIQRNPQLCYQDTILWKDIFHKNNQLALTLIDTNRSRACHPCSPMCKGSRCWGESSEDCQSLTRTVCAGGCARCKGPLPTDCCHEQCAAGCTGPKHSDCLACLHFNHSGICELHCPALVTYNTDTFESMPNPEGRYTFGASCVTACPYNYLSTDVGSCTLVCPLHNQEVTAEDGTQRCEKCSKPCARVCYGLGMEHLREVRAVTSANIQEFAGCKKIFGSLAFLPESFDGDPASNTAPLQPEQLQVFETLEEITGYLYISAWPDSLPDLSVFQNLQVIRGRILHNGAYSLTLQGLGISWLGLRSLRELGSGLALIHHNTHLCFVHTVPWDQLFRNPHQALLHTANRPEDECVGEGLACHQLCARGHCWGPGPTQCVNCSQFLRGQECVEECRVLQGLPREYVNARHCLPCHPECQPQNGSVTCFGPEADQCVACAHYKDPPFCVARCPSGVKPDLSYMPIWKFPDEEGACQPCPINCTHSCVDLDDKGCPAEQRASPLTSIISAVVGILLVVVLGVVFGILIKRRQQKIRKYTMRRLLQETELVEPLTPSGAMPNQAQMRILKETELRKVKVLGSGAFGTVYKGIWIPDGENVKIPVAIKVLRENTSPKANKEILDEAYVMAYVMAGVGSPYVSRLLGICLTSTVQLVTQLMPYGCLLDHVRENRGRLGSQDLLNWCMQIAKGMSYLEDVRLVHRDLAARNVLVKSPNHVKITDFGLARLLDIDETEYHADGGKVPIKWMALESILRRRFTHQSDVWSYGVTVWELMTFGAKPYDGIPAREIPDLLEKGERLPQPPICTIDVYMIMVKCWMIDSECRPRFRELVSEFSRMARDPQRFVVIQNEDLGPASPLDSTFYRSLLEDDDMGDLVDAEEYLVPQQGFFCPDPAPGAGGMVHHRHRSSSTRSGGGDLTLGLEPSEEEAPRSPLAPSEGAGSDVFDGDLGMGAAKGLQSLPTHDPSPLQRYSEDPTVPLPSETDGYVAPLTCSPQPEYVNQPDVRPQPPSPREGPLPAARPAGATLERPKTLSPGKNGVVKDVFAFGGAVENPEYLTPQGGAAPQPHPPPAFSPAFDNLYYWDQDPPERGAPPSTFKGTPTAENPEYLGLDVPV
T2 sequence (P00533 with tags, fused parts or gaps INS773NPH): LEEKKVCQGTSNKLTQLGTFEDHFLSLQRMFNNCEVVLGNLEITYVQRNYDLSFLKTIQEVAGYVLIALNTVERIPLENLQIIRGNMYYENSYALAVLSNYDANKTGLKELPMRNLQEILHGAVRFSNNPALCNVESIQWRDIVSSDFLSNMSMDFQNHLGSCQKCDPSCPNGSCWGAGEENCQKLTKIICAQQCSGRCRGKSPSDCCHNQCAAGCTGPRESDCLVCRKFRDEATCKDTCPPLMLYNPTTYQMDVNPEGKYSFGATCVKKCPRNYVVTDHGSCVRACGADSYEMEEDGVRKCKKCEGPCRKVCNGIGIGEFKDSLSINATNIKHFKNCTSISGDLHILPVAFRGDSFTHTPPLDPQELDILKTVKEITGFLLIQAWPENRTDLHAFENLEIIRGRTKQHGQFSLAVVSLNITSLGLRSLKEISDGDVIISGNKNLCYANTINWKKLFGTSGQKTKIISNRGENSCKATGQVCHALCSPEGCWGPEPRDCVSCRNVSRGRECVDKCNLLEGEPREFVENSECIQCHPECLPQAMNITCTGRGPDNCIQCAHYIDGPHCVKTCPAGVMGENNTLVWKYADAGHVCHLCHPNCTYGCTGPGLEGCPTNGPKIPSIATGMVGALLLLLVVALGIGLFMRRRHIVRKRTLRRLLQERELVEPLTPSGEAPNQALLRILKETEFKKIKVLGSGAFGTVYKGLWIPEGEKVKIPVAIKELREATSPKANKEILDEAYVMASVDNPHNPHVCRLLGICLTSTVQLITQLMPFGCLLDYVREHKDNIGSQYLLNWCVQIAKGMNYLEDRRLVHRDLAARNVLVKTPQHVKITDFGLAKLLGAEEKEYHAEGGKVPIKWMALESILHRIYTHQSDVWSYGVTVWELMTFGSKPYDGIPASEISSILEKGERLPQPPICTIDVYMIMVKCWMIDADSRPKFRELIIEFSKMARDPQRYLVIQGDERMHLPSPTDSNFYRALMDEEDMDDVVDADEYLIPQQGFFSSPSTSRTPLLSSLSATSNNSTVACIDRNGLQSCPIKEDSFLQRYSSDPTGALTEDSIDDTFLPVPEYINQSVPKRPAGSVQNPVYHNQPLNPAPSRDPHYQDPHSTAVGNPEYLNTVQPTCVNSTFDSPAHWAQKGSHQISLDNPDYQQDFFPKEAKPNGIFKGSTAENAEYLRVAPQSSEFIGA
Method for Ba/F3 EGFR ASV ins cells: as §1

Broadly, the GI50 is the concentration giving 50% growth inhibition. In general, pIC50 refers to the negative decadic logarithm of the IC50, by convention in mol/L. Broadly, the hepatocyte CLint is a measure of how fast metabolising enzymes remove a compound, apart from limits set by blood flow. Lower therefore signals slow turnover. Regarding `[2H]C([2H])([2H])N(CCN(C)c1cc(OC)c(Nc2ncnc(Nc3cc(F)c(Cl)cc3C(C)(C)O)n2)cc1NC(=O)C=C)C([2H])([2H])[2H]` [Compound 37, N-(2-((2-(bis(methyl-d3)amino)ethyl)(methyl)amino)-5-((4-((4-chloro-5-fluoro-2-(2-hydroxypropan-2-yl)phenyl)amino)-1,3,5-triazin-2-yl)amino)-4-methoxyphenyl) acrylamide], the GI50 in the series on WT EGFR cell line A-431 worked out at 0.0103 µM; in series [1], 0.0015 µM; with Ba/F3 EGFR NPH ins cells it was 0.0229 µM; in the series with OCI-LY-10 cells, 0.0146 µM; in the series on DB cells, 2.98 µM; in [3], 0.0223 µM. For the same compound, the GI50 in the series on Ba/F3 EGFR ASV ins cells was 0.024 µM; in the series with TMD-8 cells, 0.01 µM; in the series on Ri-1 cells, 0.0346 µM. Further, the pIC50 on WT EGFR was 8.02; in series [2], 8.07; on EGFR L858R&T790M it was 9.30; in series [4] it was 8.48; in [6], 8.09. Moreover, the hepatocyte CLint at 1 µM came out at 67.7 µL/min/1e6 cells in series [5] and 11.8 µL/min/1e6 cells in series [7].
With `C=CC(=O)Nc1cc(Nc2ncnc(Nc3cc(F)c(Cl)cc3C(C)(C)O)n2)c(OC)cc1N1CC[C@@H](N(C)C)C1` [Compound 51, (R)-N-(5-(4-(4-chloro-5-fluoro-2-(2-hydroxypropan-2-yl)phenylamino)-1,3,5-triazin-2-ylamino)-2-(3-(dimethylamino)pyrrolidin-1-yl)-4-methoxyphenyl)acrylamide], the GI50 was 0.0134 µM with WT EGFR cell line A-431; 0.0019 µM in [1]; 0.0529 µM in the series with Ba/F3 EGFR NPH ins cells; 0.00673 µM in the series with OCI-LY-10 cells; more than 3 µM with DB cells; 0.105 µM in series [3]. Besides, the GI50 came to 0.0354 µM in the series with Ba/F3 EGFR ASV ins cells, 0.00362 µM in the series with TMD-8 cells and 0.0103 µM with Ri-1 cells. The pIC50 on WT EGFR is 7.90; in series [2], 7.54; at EGFR L858R&T790M, 9.00; in [4] it was 7.70; in [6] it was 7.79. Further, the hepatocyte CLint at 1 µM in series [5] was 5.97 µL/min/1e6 cells; in series [7], 4.02 µL/min/1e6 cells.
In the case of `C=CC(=O)Nc1cc(Nc2ncnc(Nc3cc(Cl)c(Cl)cc3C(C)(C)O)n2)c(OC)cc1N1CC[C@@H](N(C)C)C1` [Compound 61, (R)-N-(5-(4-(4,5-dichloro-2-(2-hydroxypropan-2-yl)phenylamino)-1,3,5-triazin-2-ylamino)-2-(3-(dimethylamino)pyrrolidin-1-yl)-4-methoxyphenyl)acry lamide], the concentration for 50% growth inhibition (GI50) in the series on WT EGFR cell line A-431 is 0.0124 µM; in series [1], 0.0021 µM; in the series with Ba/F3 EGFR NPH ins cells it was 0.0188 µM; in the series on OCI-LY-10 cells, 0.00272 µM; in the series on DB cells it was 1.51 µM; in [3], 0.0878 µM. Besides, the GI50 stood at 0.0256 µM with Ba/F3 EGFR ASV ins cells, 0.00103 µM with TMD-8 cells and 0.00562 µM with Ri-1 cells. Besides, the pIC50 was 7.74 against WT EGFR; 7.85 in [2]; 9.40 at EGFR L858R&T790M; 8.05 in series [4]; 7.91 in series [6]. Also, the hepatocyte CLint at 1 µM came out at 7.9 µL/min/1e6 cells in [5] and 2.71 µL/min/1e6 cells in series [7].
Consider `C=CC(=O)Nc1cc(Nc2nccc(Nc3cc(Cl)c(Cl)cc3C(C)(C)O)n2)c(OC)cc1N1CC[C@@H](N(C)C)C1` [Compound 68, (R)-N-(5-(4-(4,5-dichloro-2-(2-hydroxypropan-2-yl)phenylamino)pyrimidin-2-ylamino)-2-(3-(dimethylamino)pyrrolidin-1-yl)-4-methoxyphenyl)acrylamide], for which the GI50 with WT EGFR cell line A-431 was found to be 0.0208 µM; in [1], 0.0028 µM; with Ba/F3 EGFR NPH ins cells, 0.033 µM; in the series on OCI-LY-10 cells it was 0.0114 µM; in the series with DB cells, 2.51 µM; in series [3] it was 0.0967 µM. In addition, the GI50 in the series on Ba/F3 EGFR ASV ins cells worked out at 0.0461 µM; in the series with TMD-8 cells it was 0.0036 µM; in the series with Ri-1 cells it was 0.0136 µM. Further, the pIC50 on WT EGFR is 6.87; in series [2] it was 7.50; at EGFR L858R&T790M, 8.77; in series [4], 7.82; in series [6], 7.57. Also, the hepatocyte CLint at 1 µM is 17.5 µL/min/1e6 cells in series [5] and 3.89 µL/min/1e6 cells in series [7].
Turning to `C=CC(=O)Nc1cc(Nc2ncnc(Nc3cc(Cl)c(F)cc3C(C)(C)O)n2)c(OC)cc1N1CC[C@@H](NC)C1` [Compound 73, (R)-N-(5-(4-(5-chloro-4-fluoro-2-(2-hydroxypropan-2-yl)phenylamino)-1,3,5-triazin-2-ylamino)-4-methoxy-2-(3-(methylamino)pyrrolidin-1-yl)phenyl) acrylamide], the GI50 was 0.008 µM in the series with WT EGFR cell line A-431; 0.0033 µM in series [1]; 0.0432 µM in the series on Ba/F3 EGFR NPH ins cells; 0.0163 µM with OCI-LY-10 cells; more than 3 µM in the series on DB cells; 0.026 µM in series [3]. Further, the GI50 stood at 0.0274 µM in the series on Ba/F3 EGFR ASV ins cells, 0.00375 µM in the series on TMD-8 cells and 0.151 µM in the series on Ri-1 cells. Further, the pIC50 against WT EGFR was 7.56; in series [2], 7.65; at EGFR L858R&T790M, 9.15; in [4] it was 7.91; in series [6] it was 8.07. The intrinsic metabolic clearance (hepatocyte CLint) at 1 µM in series [5] was determined as 6.15 µL/min/1e6 cells; in series [7], 1.1 µL/min/1e6 cells.
For `C=CC(=O)Nc1cc(Nc2nccc(Nc3cc(Cl)c(F)cc3C(C)(C)O)n2)c(OC)cc1N1C[C@@H]2CN(C)C[C@@H]21` [Compound 96, N-(5-(4-(5-chloro-4-fluoro-2-(2-hydroxypropan-2-yl)phenylamino)pyrimidin-2-ylamino)-4-methoxy-2-((1S,5R)-3-methyl-3,6-diazabicyclo[3.2.0]heptan-6-yl)phenyl)acrylamide], the GI50 is 0.0178 µM in the series on WT EGFR cell line A-431; 0.0008 µM in series [1]; 0.05 µM in the series with Ba/F3 EGFR NPH ins cells; 0.00704 µM in the series on OCI-LY-10 cells; 2.99 µM in the series with DB cells; 0.05 µM in [3]. In addition, the GI50 with Ba/F3 EGFR ASV ins cells came out at 0.0556 µM; with TMD-8 cells, 0.0028 µM; with Ri-1 cells it was 0.0251 µM. The pIC50 against WT EGFR is 7.30; in series [2] it was 7.87; at EGFR L858R&T790M, 9.40; in [4] it was 8.68; in series [6], 8.15. For the same compound, the hepatocyte CLint at 1 µM in series [5] is 13.2 µL/min/1e6 cells; in series [7], 1.42 µL/min/1e6 cells.
